Data taken from PubChem BioAssay AID2060502 (Molecular Pharmacology Branch, DTP, NCI, 2025).
pIC50: −log10 of the molar value. Values joined by “and” are separate entries in the source; they are usually repeats but may differ in a detail not shown here. Identical values can stand only once.

Test system: 885724-159-R-J1-PDC complex spheroid viability
Assay: Anticancer human tumor 885724-159-R-J1-PDC patient-derived pancreatic adenocarcinoma cell line growth inhibition [GQUAD]
Details: for viability, T/C: stronger effect = lower value
Outline: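 Multi-cell-type spheroids of tumor cells with HUVEC and mesenchymal stem cells, treated with drug combinations. Concentrations descend in half-log steps from near clinical Cmax, or from 10 microM where Cmax is unknown; viability read-out.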

[1] = curve of first compound, second compound 0.0316 µM
[2] = curve of first compound, second compound 0.1 µM
[3] = curve of first compound, second compound 0.316 µM
[4] = curve of first compound, second compound 1 µM
[5] = curve of first compound, second compound 3.16 µM
[6] = curve of first compound, second compound 10 µM
[7] = second compound 0.0316 µM, first compound 0.000999 µM
[8] = second compound 0.0316 µM, first compound 0.00316 µM
[9] = second compound 0.0316 µM, first compound 0.00999 µM
[10] = second compound 0.0316 µM, first compound 0.0316 µM
[11] = second compound 0.0316 µM, first compound 0.0999 µM
[12] = second compound 0.0316 µM, first compound 0.316 µM
[13] = second compound 0.1 µM, first compound 0.000999 µM
[14] = second compound 0.1 µM, first compound 0.00316 µM
[15] = second compound 0.1 µM, first compound 0.00999 µM
[16] = second compound 0.1 µM, first compound 0.0316 µM
[17] = second compound 0.1 µM, first compound 0.0999 µM
[18] = second compound 0.1 µM, first compound 0.316 µM
[19] = second compound 0.316 µM, first compound 0.000999 µM
[20] = second compound 0.316 µM, first compound 0.00316 µM
[21] = second compound 0.316 µM, first compound 0.00999 µM
[22] = second compound 0.316 µM, first compound 0.0316 µM
[23] = second compound 0.316 µM, first compound 0.0999 µM
[24] = second compound 0.316 µM, first compound 0.316 µM
[25] = second compound 1 µM, first compound 0.000999 µM
[26] = second compound 1 µM, first compound 0.00316 µM
[27] = second compound 1 µM, first compound 0.00999 µM
[28] = second compound 1 µM, first compound 0.0316 µM
[29] = second compound 1 µM, first compound 0.0999 µM
[30] = second compound 1 µM, first compound 0.316 µM
[31] = second compound 3.16 µM, first compound 0.000999 µM
[32] = second compound 3.16 µM, first compound 0.00316 µM
[33] = second compound 3.16 µM, first compound 0.00999 µM
[34] = second compound 3.16 µM, first compound 0.0316 µM
[35] = second compound 3.16 µM, first compound 0.0999 µM
[36] = second compound 3.16 µM, first compound 0.316 µM
[37] = second compound 10 µM, first compound 0.000999 µM
[38] = second compound 10 µM, first compound 0.00316 µM
[39] = second compound 10 µM, first compound 0.00999 µM
[40] = second compound 10 µM, first compound 0.0316 µM
[41] = second compound 10 µM, first compound 0.0999 µM
[42] = second compound 10 µM, first compound 0.316 µM
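Note: spheroids exposed to agents for seven days before readout.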
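Throughout, for viability, T/C: percent of vehicle control viability where 100% = DMSO wells.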

## CCc1c2c(nc3ccc(O)cc13)-c1cc3c(c(=O)n1C2)COC(=O)[C@]3(O)CC + Cc1cnc(CNC(=O)c2c(=O)c3ccc(N4CCCN(C)CC4)nc3n3c2sc2ccccc23)cn1
[1]
  pIC50: 7.09
[2]
  pIC50: 7.38
[3]
  pIC50: 7.32
[4]
  pIC50: 7.24
[5]
  pIC50: 7.48
[6]
  pIC50: 7.49
[7]
  viability, T/C: 101%
[8]
  viability, T/C: 97.1%
[9]
  viability, T/C: 75.1%
[10]
  viability, T/C: 66.2%
[11]
  viability, T/C: 54.1%
[12]
  viability, T/C: 9.27%
[13]
  viability, T/C: 114%
[14]
  viability, T/C: 90.5%
[15]
  viability, T/C: 68.8%
[16]
  viability, T/C: 60.4%
[17]
  viability, T/C: 45.2%
[18]
  viability, T/C: 7.81%
[19]
  viability, T/C: 93.2%
[20]
  viability, T/C: 82.7%
[21]
  viability, T/C: 72.2%
[22]
  viability, T/C: 54.4%
[23]
  viability, T/C: 42.4%
[24]
  viability, T/C: 4.89%
[25]
  viability, T/C: 77.2%
[26]
  viability, T/C: 78.6%
[27]
  viability, T/C: 63.8%
[28]
  viability, T/C: 61.3%
[29]
  viability, T/C: 41.7%
[30]
  viability, T/C: 0.87%
[31]
  viability, T/C: 73.9%
[32]
  viability, T/C: 72.1%
[33]
  viability, T/C: 57.8%
[34]
  viability, T/C: 48.3%
[35]
  viability, T/C: 36.7%
[36]
  viability, T/C: 0.45%
[37]
  viability, T/C: 66.5%
[38]
  viability, T/C: 69.6%
[39]
  viability, T/C: 53.6%
[40]
  viability, T/C: 54.8%
[41]
  viability, T/C: 30.7%
[42]
  viability, T/C: 0.45%

## CC1COCCN1c1cc(-c2ccnn2C)c2ccnc(-c3ccn[nH]3)c2n1 (configuration not stated)
Compound 0.0316 µM
  viability, T/C: 104% and 98% and 79.1%
Compound 0.1 µM
  viability, T/C: 93% and 80.3% and 83.4%
Compound 0.316 µM
  viability, T/C: 83.2% and 68.7% and 75%
Compound 1 µM
  viability, T/C: 69.1% and 67.7% and 69.3%
Compound 3.16 µM
  viability, T/C: 58.6% and 51.1% and 45.9%
Compound 10 µM
  viability, T/C: 45.6% and 52.2% and 42.1%
Curve of compound
  pIC50: 5.17 and < 5.00 and 5.58

## C=CC(=O)N1CCN(c2nc(=O)n(-c3c(C)ccnc3C(C)C)c3nc(-c4c(O)cccc4F)c(F)cc23)C(C)C1 (configuration not stated)
Compound 0.0316 µM
  viability, T/C: 96.5% and 93.7% and 94.2%
Compound 0.1 µM
  viability, T/C: 88.8% and 90% and 101%
Compound 0.316 µM
  viability, T/C: 98.2% and 110% (2×)
Compound 1 µM
  viability, T/C: 117% and 108% and 105%
Compound 3.16 µM
  viability, T/C: 95.2% and 106% and 104%
Compound 10 µM
  viability, T/C: 87% and 89.9% and 96.3%
Curve of compound
  pIC50: < 5.00

## Cn1ncnc1[C@H]1c2n[nH]c(=O)c3cc(F)cc(c23)N[C@@H]1c1ccc(F)cc1
Compound 0.000999 µM
  viability, T/C: 93.4% and 97.4% and 94.5%
Compound 0.00316 µM
  viability, T/C: 108% and 94.8% and 82.2%
Compound 0.00999 µM
  viability, T/C: 87.3% and 97.6% and 97.2%
Compound 0.0316 µM
  viability, T/C: 92.5% and 97.9% and 93.9%
Compound 0.0999 µM
  viability, T/C: 88.5% and 97.7% and 103%
Compound 0.316 µM
  viability, T/C: 89.2% and 88% and 94.4%
Curve of compound
  pIC50: < 6.50

## Cc1[nH]c2ccccc2c1CCNCc1ccc(/C=C/C(=O)NO)cc1 + Cc1[nH]c2ccc(F)cc2c1-c1nc2c3cccnc3c3ncccc3c2[nH]1
[1]
  pIC50: 6.57
[2]
  pIC50: 6.52
[3]
  pIC50: 6.55
[4]
  pIC50: 6.67
[5]
  pIC50: > 9.00
[6]
  pIC50: 6.65
[7]
  viability, T/C: 87%
[8]
  viability, T/C: 99%
[9]
  viability, T/C: 93.4%
[10]
  viability, T/C: 98.2%
[11]
  viability, T/C: 106%
[12]
  viability, T/C: 42.8%
[13]
  viability, T/C: 95.9%
[14]
  viability, T/C: 90.3%
[15]
  viability, T/C: 87.8%
[16]
  viability, T/C: 95%
[17]
  viability, T/C: 99.6%
[18]
  viability, T/C: 48.5%
[19]
  viability, T/C: 101%
[20]
  viability, T/C: 77.9%
[21]
  viability, T/C: 83.1%
[22]
  viability, T/C: 81.2%
[23]
  viability, T/C: 78.9%
[24]
  viability, T/C: 46.4%
[25]
  viability, T/C: 75.5%
[26]
  viability, T/C: 60.8%
[27]
  viability, T/C: 66.4%
[28]
  viability, T/C: 57.8%
[29]
  viability, T/C: 82.2%
[30]
  viability, T/C: 40.3%
[31]
  viability, T/C: 18.1%
[32]
  viability, T/C: 13.1%
[33]
  viability, T/C: 19.2%
[34]
  viability, T/C: 11.5%
[35]
  viability, T/C: 21.2%
[36]
  viability, T/C: 31.6%
[37]
  viability, T/C: 68.1%
[38]
  viability, T/C: 75.2%
[39]
  viability, T/C: 64%
[40]
  viability, T/C: 69.7%
[41]
  viability, T/C: 81.6%
[42]
  viability, T/C: 41.2%

## CC1COCCN1c1cc(-c2ccnn2C)c2ccnc(-c3ccn[nH]3)c2n1 (configuration not stated) + CN(C)c1ccc(Nc2c3ccc(NC(=O)CCN4CCCC4)cc3nc3cc(NC(=O)CCN4CCCC4)ccc23)cc1
[1]
  pIC50: 5.12
[2]
  pIC50: 5.06
[3]
  pIC50: < 5.00
[4]
  pIC50: 5.67
[5]
  pIC50: 5.77
[6]
  pIC50: 5.89
[10]
  viability, T/C: 91.5%
Second compound 0.0316 µM, first compound 0.1 µM
  viability, T/C: 85.6%
[12]
  viability, T/C: 71.7%
Second compound 0.0316 µM, first compound 1 µM
  viability, T/C: 65%
Second compound 0.0316 µM, first compound 3.16 µM
  viability, T/C: 53.7%
Second compound 0.0316 µM, first compound 10 µM
  viability, T/C: 48.7%
[16]
  viability, T/C: 99.8%
Second compound 0.1 µM, first compound 0.1 µM
  viability, T/C: 87%
[18]
  viability, T/C: 70.9%
Second compound 0.1 µM, first compound 1 µM
  viability, T/C: 67%
Second compound 0.1 µM, first compound 3.16 µM
  viability, T/C: 48.1%
Second compound 0.1 µM, first compound 10 µM
  viability, T/C: 51.9%
[22]
  viability, T/C: 95.7%
Second compound 0.316 µM, first compound 0.1 µM
  viability, T/C: 76.4%
[24]
  viability, T/C: 86.9%
Second compound 0.316 µM, first compound 1 µM
  viability, T/C: 64.5%
Second compound 0.316 µM, first compound 3.16 µM
  viability, T/C: 52.7%
Second compound 0.316 µM, first compound 10 µM
  viability, T/C: 48.6%
[28]
  viability, T/C: 86.8%
Second compound 1 µM, first compound 0.1 µM
  viability, T/C: 68.5%
[30]
  viability, T/C: 63.8%
Second compound 1 µM, first compound 1 µM
  viability, T/C: 53.6%
Second compound 1 µM, first compound 3.16 µM
  viability, T/C: 50%
Second compound 1 µM, first compound 10 µM
  viability, T/C: 42.1%
[34]
  viability, T/C: 87.5%
Second compound 3.16 µM, first compound 0.1 µM
  viability, T/C: 74.8%
[36]
  viability, T/C: 72.7%
Second compound 3.16 µM, first compound 1 µM
  viability, T/C: 54.9%
Second compound 3.16 µM, first compound 3.16 µM
  viability, T/C: 41.8%
Second compound 3.16 µM, first compound 10 µM
  viability, T/C: 39.5%
[40]
  viability, T/C: 74.2%
Second compound 10 µM, first compound 0.1 µM
  viability, T/C: 72.3%
[42]
  viability, T/C: 52.8%
Second compound 10 µM, first compound 1 µM
  viability, T/C: 59.5%
Second compound 10 µM, first compound 3.16 µM
  viability, T/C: 39%
Second compound 10 µM, first compound 10 µM
  viability, T/C: 36.2%
